Assay results: patent publication US20210040074A1 (The United States of America,as represented by the …, priority 2018, published 2021)

Assays:
D5 [1] = molecular target: T1, D5 (Homo sapiens, UniProt P21918); assay: D5 cAMP assay; conditions: fold change of dopamine EC50, 50 μM compound
Description: (§2) cAMP Accumulation Assay. Assays were performed on D1R-HEK293 (Codex Biosolutions, Gaithersburg, Md.) cells stably expressing the human D1R. HEK293 cell lines were maintained in Dulbecco's modified Eagles medium, supplemented with 10% fetal bovine serum, 100 U/ml penicillin, 100 μg/ml streptomycin, 1 mM sodium pyruvate, and 250 μg/ml G418 and incubated at 37° C., 5% CO2, and 90% humidity. […] After 18-24 h incubation at 37° C., 5% CO2, and 90% humidity, the media was removed and replaced with 5 μL/well PBS. […] Briefly, antibody and working solution was added to each well according to the manufacturer's protocol, and incubated in the dark at room temperature for 60 min. Following incubation, enzyme acceptor reagent was added to the plates and luminescence (RLU) was measured (FDSS μCell, Hamamatsu Photonics K. K., Bridgewater, N.J.) following a 3 h incubation in the dark at room temperature.

D5 [2] = molecular target: T1, D5; assay: D5R β-arrestin recruitment assay (DiscoverX PathHunter, CHO cells); type: cell-based; parameters: host or cells: CHO-K1; conditions: for D5 Beta-Arrestin: DA + 50 μM PAM, Fold Change EC50: fold change of dopamine EC50, 50 μM compound; for DA + 50 μM PAM, Fold Change EC50: fold change of DA EC50 with 50 μM PAM, Dopamine D5-β-arrestin Assay
Description: (§1) β-arrestin Recruitment Assay. […] Following 18-24 h of incubation, the cells were treated with the indicated concentrations of compound in PBS buffer containing 0.2 mM sodium metabisulfite, and incubated at 37° C. for 90 min. DiscoverX reagent was added to cells according to the manufacturer's protocol, followed by a 60 min incubation in the dark at room temperature. Luminescence was measured on a Hamamatsu FDSS μ-Cell reader (Hamamatsu, Bridgewater, N.J.) and data were collected using the FDSS software.
Each PAM was also examined in the absence of DA as an agonist, as indicated.

D4R = molecular target: T2, D4R (Homo sapiens, UniProt P21917); assay: D4 β-arrestin recruitment assay (DiscoverX PathHunter, CHO-K1 cells); type: cell-based; parameters: inferred from the same PathHunter system described for D1R and D5R; host or cells: CHO-K1; conditions: for D4 Beta-Arrestin: DA + 50 μM PAM, Fold Change EC50: fold change of dopamine EC50, 50 μM compound; for DA + 50 μM PAM, Fold Change EC50: fold change of DA EC50 with 50 μM PAM, Dopamine D4-β-arrestin Assay
T2 sequence (P21917 1-419): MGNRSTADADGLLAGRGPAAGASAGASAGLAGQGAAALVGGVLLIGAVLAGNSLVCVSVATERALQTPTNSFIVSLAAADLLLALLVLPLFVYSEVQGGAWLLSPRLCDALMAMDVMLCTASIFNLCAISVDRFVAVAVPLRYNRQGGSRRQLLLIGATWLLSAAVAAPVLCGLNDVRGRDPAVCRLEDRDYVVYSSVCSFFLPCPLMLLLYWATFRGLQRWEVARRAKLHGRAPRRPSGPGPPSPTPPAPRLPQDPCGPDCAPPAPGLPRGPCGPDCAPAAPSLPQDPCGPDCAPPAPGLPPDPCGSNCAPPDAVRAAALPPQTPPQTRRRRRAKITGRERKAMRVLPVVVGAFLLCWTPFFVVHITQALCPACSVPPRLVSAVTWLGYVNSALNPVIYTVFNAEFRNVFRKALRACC
Description: as §1, with “Assay. Agonist-mediated recruitment of β-arrestin-2 to all five DARs was determined using the DiscoveRx PathHunter complementation assay (DiscoverX Inc, Fremont, Calif.), as previously described (Free, et. al., 2014; Conroy, et. al., 2015).” for “Assay.”

human D1R [3] = molecular target: T3, human D1R (Homo sapiens, UniProt P21728); assay: D1 cAMP accumulation assay (D1R-HEK293 cells, DiscoverX HitHunter); conditions: fold change of dopamine EC50, 50 μM compound
Description: as §2

human D1R [4] = molecular target: T3, human D1R; assay: D1R β-arrestin recruitment assay (DiscoverX PathHunter, CHO-K1 cells); conditions: for D1 Beta-Arrestin: DA + 50 μM PAM, Fold Chg EC50: fold change of dopamine EC50, 50 μM compound; for DA + 50 μM PAM, Fold Change EC50: fold change of DA EC50 with 50 μM PAM, Dopamine D1-β-arrestin Assay
Description: The DiscoverX PathHunter β-Arrestin Assay was used to measure β-arrestin reuitment to the D1R following the manufacturer's instructions.

T3 sequence (P21728 whole entry): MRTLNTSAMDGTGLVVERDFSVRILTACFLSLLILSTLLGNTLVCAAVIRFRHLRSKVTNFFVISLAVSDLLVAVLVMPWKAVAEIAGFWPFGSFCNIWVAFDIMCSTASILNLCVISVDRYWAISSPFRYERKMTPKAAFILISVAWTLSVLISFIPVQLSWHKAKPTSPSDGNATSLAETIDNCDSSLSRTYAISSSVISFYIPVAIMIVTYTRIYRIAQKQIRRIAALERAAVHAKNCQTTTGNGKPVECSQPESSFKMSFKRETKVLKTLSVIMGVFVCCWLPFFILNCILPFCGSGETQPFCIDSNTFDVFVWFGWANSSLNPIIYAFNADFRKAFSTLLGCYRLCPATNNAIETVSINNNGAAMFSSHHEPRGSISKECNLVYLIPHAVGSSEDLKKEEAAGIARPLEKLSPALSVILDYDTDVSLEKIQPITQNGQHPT
T1 sequence (P21918 whole entry): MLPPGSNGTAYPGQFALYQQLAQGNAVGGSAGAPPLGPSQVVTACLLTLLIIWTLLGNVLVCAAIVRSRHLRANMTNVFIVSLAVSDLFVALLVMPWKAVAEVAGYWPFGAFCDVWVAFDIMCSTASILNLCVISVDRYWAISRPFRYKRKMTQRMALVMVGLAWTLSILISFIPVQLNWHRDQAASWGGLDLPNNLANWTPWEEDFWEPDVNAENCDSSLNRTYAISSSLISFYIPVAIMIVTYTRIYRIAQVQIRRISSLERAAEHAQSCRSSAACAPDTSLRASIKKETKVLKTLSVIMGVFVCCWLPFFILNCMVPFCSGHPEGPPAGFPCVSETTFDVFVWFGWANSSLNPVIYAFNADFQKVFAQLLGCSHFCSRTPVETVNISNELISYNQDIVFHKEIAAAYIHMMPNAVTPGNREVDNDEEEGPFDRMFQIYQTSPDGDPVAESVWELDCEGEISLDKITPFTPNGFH

D5 cAMP: DA + 50 μM PAM, Fold Change EC50 (D5 [1])	PAM activity at the D5 receptor (D5 [2]; 50 μM compound)	fold change of dopamine EC50 for β-arrestin recruitment to D5R (D5 [2]; 50 μM compound)	D5 Beta-Arrestin: DA + 50 μM PAM, Fold Change EC50 (D5 [2])	D4 Beta-Arrestin: DA + 50 μM PAM, Fold Change EC50 (D4R)	D1 cAMP: DA + 50 μM PAM, Fold Chg EC50 (human D1R [3])	D1 Beta-Arrestin: DA + 50 μM PAM, Fold Chg EC50 (human D1R [4])	DA + 50 μM PAM, Fold Change EC50 (D5 [2])	DA + 50 μM PAM, Fold Change EC50 (human D1R [4])	DA + 50 μM PAM, Fold Change EC50 (D4R)	SMILES
1.26	–	–	4.16	1.26	–	–	–	–	–	Cn1c2ccccc2c(=O)c2c(=O)n(-c3ccccc3)c(C3CCCC3)nc21 [Compound 24]
0.66	–	–	1.68	1.20	1.30	1.05	–	–	–	CC(C)(C)C1CCc2c(sc(NC(=O)c3cncc(Br)c3)c2C(N)=O)C1 (stereo not drawn) [Compound 29]
0.60	–	–	0.48	0.43	1.31	1.05	–	–	–	CC(C)(C)C1CCc2c(sc(NC(=O)c3ccccn3)c2C(N)=O)C1 (stereo not drawn) [Compound 30]
0.45	–	–	0.83	1.34	1.20	1.35	–	–	–	CC1CCc2c(sc(NC(=O)c3ccc4ccccc4n3)c2C(N)=O)C1 (stereo not drawn) [Compound 31]
1.25	–	–	0.92	0.73	1.28	0.77	–	–	–	CC(C)(C)C1CCc2c(sc(NC(=O)c3ccc4ccccc4n3)c2C(N)=O)C1 (stereo not drawn) [Compound 32]
1.57	–	–	1.86	0.81	1.53	0.97	–	–	–	CC1CCc2c(sc(NC(=O)c3ccncc3)c2C(N)=O)C1 (stereo not drawn) [Compound 33]
1.45	–	–	1.28	0.96	1.30	0.61	–	–	–	CN1CCc2c(sc(NC(=O)c3ccncc3)c2C#N)C1 [Compound 34]
0.76	–	–	1.06	1.07	1.79	0.97	–	–	–	CC1CCc2c(sc(NC(=O)c3cccnc3)c2C(N)=O)C1 (stereo not drawn) [Compound 35]
–	–	–	0.78	2.26	2.29	10.35	–	–	–	CC(C)(C)C1CCc2c(sc(NC(=O)c3cccnc3)c2C(N)=O)C1 (stereo not drawn) [Compound 38]
–	–	–	0.65	2.03	1.04	3.01	–	–	–	CCOC(=O)c1c(NC(=O)c2cccnc2)sc2c1CCC(C(C)(C)C)C2 (stereo not drawn) [Compound 39]
–	–	–	0.48	0.68	0.7	1.97	–	–	–	NC(=O)c1c(NC(=O)c2cccnc2)sc2c1CCC(c1ccccc1)C2 (stereo not drawn) [Compound 40]
–	–	–	–	–	–	–	1.03	1.88	1.21	NC(=O)c1c(NC(=O)c2cccnc2)sc2c1CCCC2 [R4=NH2; R5=NHCO-3-pyridyl; R6=H]
–	–	–	–	–	–	–	0.87	1.76	1.2	CC1CCc2c(sc(NC(=O)c3ccc(O)cc3)c2C(N)=O)C1 (stereo not drawn) [R4=NH2; R5=NHCO-4-HOPh; R6=Me]

Further lines, the compound ahead of its results:

SMILES	D5 cAMP: DA + 50 μM PAM, Fold Change EC50 (D5 [1])	PAM activity at the D5 receptor (D5 [2]; 50 μM compound)	fold change of dopamine EC50 for β-arrestin recruitment to D5R (D5 [2]; 50 μM compound)	D5 Beta-Arrestin: DA + 50 μM PAM, Fold Change EC50 (D5 [2])	D4 Beta-Arrestin: DA + 50 μM PAM, Fold Change EC50 (D4R)	D1 cAMP: DA + 50 μM PAM, Fold Chg EC50 (human D1R [3])	D1 Beta-Arrestin: DA + 50 μM PAM, Fold Chg EC50 (human D1R [4])	DA + 50 μM PAM, Fold Change EC50 (D5 [2])	DA + 50 μM PAM, Fold Change EC50 (human D1R [4])	DA + 50 μM PAM, Fold Change EC50 (D4R)
Cc1ccc(-n2c(CC(C)C)nc3c(c(=O)c4ccccc4n3C)c2=O)cc1 [Compound 5]	2.23	none of these analogs have PAM activity	1.3 fold	1.32	1.06	–	–	–	–	–
COc1ccc(-n2c(CC3CCCCC3)nc3c(c(=O)c4ccccc4n3C)c2=O)cc1 [Compound 16]	0.67	–	–	0.73	1.45	0.34	0.45	–	–	–
Cn1c2ccccc2c(=O)c2c(=O)n(-c3ccc(Cl)cc3)c(CC3CCCCC3)nc21 [Compound 17]	1.43	–	–	1.09	1.38	–	–	–	–	–
Cn1c2ccccc2c(=O)c2c(=O)n(-c3cccc(Cl)c3)c(CC3CCCCC3)nc21 [Compound 18]	0.34	–	–	1.35	1.57	–	–	–	–	–
COc1ccc(-n2c(CC3CCCCC3)nc3c(c(=O)c4ccccc4n3C)c2=O)cc1Cl [Compound 19]	1.04	–	–	1.29	1.78	–	–	–	–	–
Cn1c2ccccc2c(=O)c2c(=O)n(-c3ccccc3)c(CC3CCCCC3)nc21 [Compound 20]	1.30	–	–	2.38	2.14	–	–	–	–	–
CC(C)Cc1nc2c(c(=O)c3ccccc3n2C)c(=O)n1-c1ccccc1 [Compound 21]	2.22	–	–	4.56	0.62	–	–	–	–	–
Cn1c2ccccc2c(=O)c2c(=O)n(-c3cccc(Cl)c3)c(CC3CCCCC3)nc21 [Compound 22]	0.73	–	–	1.40	1.67	–	–	–	–	–
Cn1c2ccccc2c(=O)c2c(=O)n(-c3ccccc3)c(C3CC3)nc21 [Compound 23]	0.57	–	–	2.58	1.32	–	–	–	–	–
